The text below walks through data of US7179825B2, “Retinoic acid mimetic anilides” (Janssen Pharmaceutica N.V., priority 1997, dated 2007).

In the first experiment the test system is Ovariectomized rats. Nature of the experiment: Vaginal keratinization test on ovariectomized rats (Example C.2). The note with it: Rattus norvegicus, po, estradiol undecylate induced keratinization, per os once daily on days 1-3, active dose = 50% of rats show complete suppression, read-out: LAD (lowest active dose). In kind it is in vivo. The text has this: The property to delay the metabolism of retinoic acid can be evidenced in various in vitro and in vivo experiments. A particular in vitro procedure is described in example C.1 and tests the inhibitory activity of the compounds of formula (I) on the metabolism of retinoic acid in human breast cancer cells. The compounds of the present invention were also effective in suppressing induced vaginal keratinization effects in ovariectomized rats as is described in example C.2.
“Vaginal Keratinization Test on Ovariectomized Rats”
Ovariectomized rats were injected subcutaneously with a sesame oil solution containing 100 μg of estradiol undecylate in a volume of 0.1 ml per 100 g body weight and control animals were injected with sesame oil. On day one, two and three, test animals were treated once daily with a per os dose of the test compound and control animals with the drug vehicle (PEG 200). One day after the last treatment, the animals were sacrificed and their vaginas were processed for histological evaluation according to the method described in J. Pharmacol. Exp. Ther. 261(2), 773–779 (1992). A dose at which 50% of the tested rats show complete suppression of the estradiol undecylate induced keratinization effects is defined as an active dose. Table 23 lists the lowest active dose (LAD in mg/kg) of the compounds of formula (I) which were tested.
Regarding `CCC(CC)C(c1ccc(NC(=O)CN2CCN(C)CC2)cc1)n1cncn1` (racemic) [Compound 15, (±)-N-[4-[2-ethyl-1-(1H-1,2,4-triazol-1-yl)butyl]phenyl]-4-methyl-1-piperazineacetamide], the minimal effective dose was over 2.5 mg/kg. Same read-out and setting: then `CCC(CC)C(c1ccc(NC(=O)C2CCNCC2)cc1)n1ccnc1.Cl` (racemic) [Compound 57, (±)-N-[4-[2-ethyl-1-(1H-imidazol-1-yl)butyl]-phenyl]4-piperidinecarboxamide monohydrochloride], with over 5 mg/kg; and `CC(=O)Nc1ccc(C(C(C)C)n2ccnc2)cc1` (racemic) [Compound 521, (±)-N-[4-[1-(1H-imidazol-1-yl)-2-methylpropyl]phenyl]acetamide], with 10 mg/kg; and `CCC(CC)C(c1ccc(NC(=S)Nc2nc3ccccc3s2)cc1)n1ccnc1` (racemic) [Compound 705, (±)-N-(2-benzothiazolyl)-N′-[4-[1-(1H-imidazol-1-yl)-2-ethylbutyl]phenyl]-thiourea], with over 5 mg/kg.

Staying with this experiment, now noted: estradiol undecylate induced keratinization, per os once daily on days 1-3, active dose = 50% of rats show complete suppression.
Take `CC(C(c1ccc(NC(=O)CCN2CCN(C)CC2)cc1)n1ccnc1)N(C)C` (mixture of isomers) [Compound 354]: the “LAD (lowest active dose)” value was over 5.00 mg/kg. On to `CCCCN(C)C(C)C(c1ccc(NC(C)=O)cc1)n1ccnc1` (mixture of isomers) [Compound 562], for which the “LAD (lowest active dose)” value amounted to 5.00 mg/kg.

With `CCN(C)C(C)C(c1ccc(NC(C)=O)cc1)n1ccnc1` (mixture of isomers) [Compound 566], the “LAD (lowest active dose)” value amounted to 5.00 mg/kg.

Regarding `CCCN(C)C(C)C(c1ccc(NC(C)=O)cc1)n1ccnc1` (mixture of isomers) [Compound 570], the “LAD (lowest active dose)” value is reported as over 5.00 mg/kg. Turning to `CC(=O)Nc1ccc(C(C(C)N(Cc2ccccc2)Cc2ccccc2)n2ccnc2)cc1` (mixture of isomers) [Compound 572], the “LAD (lowest active dose)” value is listed as over 5.00 mg/kg. Same read-out and setting: then `CCC(CC)C(c1ccc(NC(=O)CN2CCCCC2)cc1)n1ccnc1` (racemic) [Compound 43], with 2.50 mg/kg; and `CCC(CC)C(c1ccc(NC(=O)CN2CCN(C)CC2)cc1)n1ccnc1` (racemic) [Compound 44], with 2.50 mg/kg; and `CCC(CC)C(c1ccc(NC(=O)C2CCN(C)CC2)cc1)n1ccnc1` (racemic) [Compound 59], with over 2.50 mg/kg.

In the case of `CCC(CC)C(c1ccc(NC(=O)Cc2ccc(OC)c(Cl)c2)cc1)n1cncn1` (racemic) [Compound 74], the “LAD (lowest active dose)” value is listed as 2.50 mg/kg. On the same count and under the same terms, then `CCC(CC)C(c1ccc(NC(=O)Cc2c(OC)cccc2OC)cc1)n1ccnc1` (racemic) [Compound 114], with 2.50 mg/kg.

Turning to `CC(C)C(c1ccc(NC(=O)c2cc3ccccc3[nH]2)cc1)n1ccnc1` (racemic) [Compound 178], the “LAD (lowest active dose)” value is given as over 10.00 mg/kg.

As to `CN(C)CC(c1ccc(NC(=O)Cc2ccc(Cl)cc2)cc1)n1ccnc1` (racemic) [Compound 375], the “LAD (lowest active dose)” value is over 5.00 mg/kg.

In the case of `COc1ccc(CC(=O)Nc2ccc(C(C(C)CO)n3ccnc3)cc2)cc1OC` (racemic) [Compound 386, (±)-(A)-3,4-dimethoxy-N-[4-[1-(1H-imidazol-1-yl)-2-(hydroxymethyl)propyl]phenyl]benzeneacetamide], the “LAD (lowest active dose)” value is over 2.50 mg/kg. The same measure, in the same setting: then `COc1ccc(CC(=O)Nc2ccc(C(C(C)CO)n3ccnc3)cc2)cc1OC` (racemic) [Compound 394, (±)-(B)-3,4-dimethoxy-N-[4-[1-(1H-imidazol-1-yl)-2-(hydroxymethyl)propyl]phenyl]-benzeneacetamide], with over 2.50 mg/kg; and `COCC(c1ccc(NC(=O)Cc2ccc(OC)c(OC)c2)cc1)n1ccnc1` (racemic) [Compound 397], with over 2.50 mg/kg; and `CNC(C)C(c1ccc(NC(=O)Cc2ccc(OC)c(OC)c2)cc1)n1ccnc1` (racemic) [Compound 400, (±)-(A)-3,4-dimethoxy-N-[4-[1-(1H-imidazol-1-yl)-2-(methylamino)propyl]phenyl]benzeneacetamide], with over 2.50 mg/kg. On the same count and under the same terms, next, `COc1ccc(CC(=O)Nc2ccc(C(C(C)O)n3ccnc3)cc2)cc1OC.O` (racemic) [Compound 402, (±)-(B)-3,4-dimethoxy-N-[4-[2-hydroxy-1-(1H-imidazol-1-yl)propyl]phenyl]benzeneacetamide monohydrate]: over 5.00 mg/kg. Same read-out and setting: then `Cc1ccc(CC(=O)Nc2ccc(C(CN(C)C)n3ccnc3)cc2)cc1C` (racemic) [Compound 433], with over 2.50 mg/kg; and `COc1ccc(C(=O)Nc2ccc(C(CN(C)C)n3ccnc3)cc2)cc1OC` (racemic) [Compound 434], with over 2.50 mg/kg; and `CN(C)CC(c1ccc(NC(=O)N2CCN(C)CC2)cc1)n1ccnc1` (racemic) [Compound 436], with over 5.00 mg/kg. As to `CC(=O)Nc1ccc(C(C=CC(C)C)n2ccnc2)cc1` (racemic) [Compound 532], the “LAD (lowest active dose)” value is given as over 10.00 mg/kg. Take `CC(=O)Nc1ccc(C(C(C)N(C)C)n2cncn2)cc1` (racemic) [Compound 631, (±)-(B)-N-[4-[2-(dimethylamino)-1-(1H-1,2,4-triazol-1-yl)propyl]phenyl]acetamide]: the “LAD (lowest active dose)” value is over 2.50 mg/kg. Still for that read-out and setting: then `CCCC(C)C(c1ccc(NC(=O)Cc2ccc(Cl)cc2)cc1)n1cncn1` (racemic) [Compound 638], with over 2.50 mg/kg; and `CCC(CC)C(c1ccc(NC(=S)Nc2nc3ccccc3s2)cc1)n1cncn1` (racemic) [Compound 706], with 5.00 mg/kg.

`O=C(Nc1ccc(C(c2cccc(C(F)(F)F)c2)n2ccnc2)cc1)Nc1ccccc1F` (racemic) [Compound 714]: the “LAD (lowest active dose)” value is reported as 2.50 mg/kg. Still for that read-out and setting: then `COc1ccc(NC(=O)Nc2ccc(C(c3cccc(C(F)(F)F)c3)n3ccnc3)cc2)cc1` (racemic) [Compound 716], with over 2.50 mg/kg; and `COc1ccc(NC(=O)Nc2ccc(C(CN(C)C)n3ccnc3)cc2)cc1OC` (racemic) [Compound 721], with over 2.50 mg/kg; and `CCCC(c1ccc(NC(=O)Cc2ccc(Cl)cc2)cc1)(C(CC)CC)n1ccnc1` (racemic) [Compound 766], with over 2.50 mg/kg. Still for that read-out and setting: then `CCC(CC)C(CC)(c1ccc(NC(=O)Cc2ccc(Cl)cc2)cc1)n1ccnc1` (racemic) [Compound 768], with over 2.50 mg/kg; and `CCC(CC)C(c1ccc(NC(=O)C(O)c2ccc(Cl)cc2)cc1)n1cncn1` (single isomer, unassigned) [Compound 20], with 2.50 mg/kg. On the same count and under the same terms, next, `CCOc1ccc(CCC(=O)Nc2ccc(C(C(CC)CC)n3ccnc3)cc2)cc1` (single isomer, unassigned) [Compound 62]: over 5.00 mg/kg; `COc1ccc(CC(=O)Nc2ccc(C(C(C)N(C)C)n3cncn3)cc2)cc1OC` (single isomer, unassigned) [Compound 278]: 2.50 mg/kg. `COc1ccc(CC(=O)Nc2ccc(C(C(C)N(C)C)n3cncn3)cc2)cc1Cl` (single isomer, unassigned) [Compound 279]: the “LAD (lowest active dose)” value worked out at 2.50 mg/kg.

Turning to `Cc1ccc(CC(=O)Nc2ccc(C(C(C)N(C)C)n3cncn3)cc2)cc1C` (single isomer, unassigned) [Compound 280], the “LAD (lowest active dose)” value was over 2.50 mg/kg. With `COc1ccc(CC(=O)Nc2ccc(C(C(C)N(C)C)n3cncn3)cc2)cc1C` (single isomer, unassigned) [Compound 281], the “LAD (lowest active dose)” value is listed as over 2.50 mg/kg. For the molecule `CC(C(c1ccc(NC(=O)Cc2ccc(Cl)cc2)cc1)n1cncn1)N(C)C` (single isomer, unassigned) [Compound 283], the “LAD (lowest active dose)” value was 2.50 mg/kg. As for `CC(C(c1ccc(NC(=O)Cc2ccc(O)c(Cl)c2)cc1)n1cncn1)N(C)C` (single isomer, unassigned) [Compound 284], the “LAD (lowest active dose)” value is on record as 2.50 mg/kg.

Regarding `CCOc1ccc(CC(=O)Nc2ccc(C(C(C)N(C)C)n3cncn3)cc2)cc1OCC` (single isomer, unassigned) [Compound 285], the “LAD (lowest active dose)” value is reported as over 2.50 mg/kg. On the same count and under the same terms, then `COc1ccc(CC(=O)Nc2ccc(C(C(C)N(C)C)n3cncn3)cc2)cc1C` (single isomer, unassigned) [Compound 286], with over 2.50 mg/kg; and `COc1ccc(CC(=O)Nc2ccc(C(C(C)N(C)C)n3cncn3)cc2)cc1OC` (single isomer, unassigned) [Compound 287], with over 2.50 mg/kg; and `COc1cc(CC(=O)Nc2ccc(C(C(C)N(C)C)n3cncn3)cc2)ccc1C` (single isomer, unassigned) [Compound 294], with over 2.50 mg/kg. Turning to `COc1cc(CC(=O)Nc2ccc(C(C(C)N(C)C)n3cncn3)cc2)ccc1C` (single isomer, unassigned) [Compound 295], the “LAD (lowest active dose)” value is given as over 2.50 mg/kg.

Consider `CCOc1ccc(CC(=O)Nc2ccc(C(C(C)N(C)C)n3ccnc3)cc2)cc1OCC` (single isomer, unassigned) [Compound 300], for which the “LAD (lowest active dose)” value is recorded as over 2.50 mg/kg.
